Measured values published in patent publication US11603359B2, “Benzothiadiazepine compounds and their use as bile acid modulators” (Albireo AB, priority 2019, dated 2023).

What was measured:
human LBAT = target: T1, human LBAT (Homo sapiens, UniProt Q14973); experiment: LBAT (h/m) assay, human LBAT-overexpressing cells, 3H-taurocholic acid uptake; type: cell-based; conditions: 0.3 μM 3H-taurocholic acid + 7.5 μM cold taurocholic acid, 20 minutes, read-out: hLBAT IC50
T1 construct: expressed in transfected cells; Geneticin-selected LBAT-overexpressing cells
T1 sequence (Q14973 1-349): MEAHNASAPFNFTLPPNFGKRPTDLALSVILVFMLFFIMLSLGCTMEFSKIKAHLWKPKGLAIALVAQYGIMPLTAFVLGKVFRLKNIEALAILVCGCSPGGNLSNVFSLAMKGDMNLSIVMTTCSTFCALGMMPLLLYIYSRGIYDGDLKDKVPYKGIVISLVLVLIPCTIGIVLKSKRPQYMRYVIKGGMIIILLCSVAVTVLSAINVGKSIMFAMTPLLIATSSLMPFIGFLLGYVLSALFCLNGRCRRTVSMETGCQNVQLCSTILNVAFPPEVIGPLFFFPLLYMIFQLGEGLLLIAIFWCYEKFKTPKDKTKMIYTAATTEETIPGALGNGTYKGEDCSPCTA
Experimental: 20,000 cells (Human or Mouse LBAT-overexpressing cells) were seeded in 96-wells plate (Corning CLS3809) in 100 μL MEM-alpha medium (Gibco 12571-063) supplemented with 10% FBS (Gibco 10438026) containing Geneticin (Gibco 10131-027) (1 mg/mL) and incubated at 37° C. in 5% CO2 for 24 hours. After incubation, media was decanted from the wells and cells were washed two times with 300 μL of basal MEM-alpha medium (FBS-free). After decanting basal MEM-alpha medium each time, plates were tapped against paper towel to ensure maximum removal of residual media.
For human LBAT, incubation mix was prepared by adding test inhibitor dilutions (3-fold serial dilution in DMSO (Sigma D2650), 10 points) in MEM-alpha (without FBS) containing 0.3 μM 3H-taurocholic acid (ARC ART-1368) and 7.5 μM cold taurocholic acid (Sigma T4009) (maintaining 0.2% final DMSO concentration). For mouse LBAT, incubation mix was prepared by adding test inhibitor dilutions (3-fold serial dilution in DMSO, 10 points) in MEM-alpha (without FBS) containing 0.3 μM 3H-taurocholic acid and 25 μM cold taurocholic acid maintaining 0.2% final DMSO concentration).
50 μL of incubation mix containing test inhibitors was then added to the wells (in duplicate) and the plates were incubated for 20 minutes in a CO2 incubator at 37° C. After incubation, the reaction was stopped by keeping the plates on ice water mix for 2-3 minutes and then the incubation mix was aspirated completely from the wells. The wells were washed two times with 250 μL of chilled unlabelled 1 mM taurocholic acid dissolved in HEPES (Gibco 15630080)-buffered (10 mM) HBSS (Gibco 14175079) (pH 7.4). The plates were tapped against a paper towel after every wash to ensure maximum removal of blocking buffer.
100 μL of MicroScint-20 (PerkinElmer 6013621) was added to the wells and kept overnight at room temperature before reading the plates in TopCount NXT™ Microplate Scintillation and Luminescence Counter from PerkinElmer under 3H Test protocol (set at 120 seconds reading time per well, with normal plate orientation).
All test compounds were provided in powder form at room temperature. 10 mM DMSO stocks of the test compounds were prepared, aliquoted and stored at −20° C. From the 10 mM DMSO stock of the compounds, a 3-fold serial dilution in DMSO was prepared to get a total of 10 dilutions of the test compounds. 0.5 μL of this dilution in DMSO was added to 250 μL of FBS-free basal media containing 3H-taurocholic acid and cold taurocholic acid to prepare the incubation mixture.

[1] = Bidirectional permeability assay (Caco-2 cells); type: in vitro ADME; conditions: human, pH 7.4, Caco-2 monolayers, absorptive direction (A2B), FaSSIF donor buffer
Experimental: Caco-2 cells (Evotec) were seeded at a density of 70,000 cells/well in Millicell® 24-well cell culture insert plates and maintained in an incubator (37° C., 5% CO2, 95% RH) for 21 days with media change on alternate days.
Stock solutions (10 mM) of the test compounds, atenolol (low permeability marker), propranolol (high permeability marker) and digoxin (substrate for P-gp transport pathway) were prepared in dimethylsulfoxide (DMSO). An intermediate stock solution (1 mM) was prepared by diluting 10 μL of 10 mM master stock solution with 90 μL of neat DMSO. A working stock solution (10 μM) was prepared by diluting 50 μL of 1 mM with 4950 μL of FaSSIF buffer. Post addition of compounds to the FaSSIF, samples were subjected to sonication for 2 hours, and centrifuged at 4000 RPM for 30 minutes at 37° C. The 4 mL of resultant supernatant was directly used in the assay. The final DMSO concentration in the transport experiments was 1%.
On the day of assay, Caco-2 monolayers were washed twice with transport buffer (HBSS, pH 7.4) and pre-incubated for 30 min (37° C., 5% CO2, 95% RH) in an incubator. The electrical resistance of the monolayers was measured with a Millicell®—ERS system. Monolayers with trans-epithelial electrical resistance (TEER) values greater than 350 ohm·cm^2 were selected for the assay.
The assay was conducted in absorptive direction (A2B) and secretory (B2A) directions. Transport experiments were initiated by addition of transport assay buffer (FaSSIF buffer prepared in HBSS) consisting of compounds to the donor compartment (apical chamber A-B; basolateral chamber B-A) in duplicate (n=2) wells. Drug free HBSS buffer (pH 7.4) containing 1% bovine serum albumin (BSA) was introduced to the receiver (A-B-basolateral; B-A-Apical) compartments. The volumes of apical and basolateral compartments were 0.4 and 0.8 mL, respectively. After adding dosing solution, plates were incubated in an incubator for 120 minutes at 37° C. After 120 minutes, donor and receiver samples were collected and matrix matched (1:1, 30 μL study sample+30 μL blank buffer) with the opposite buffer. Dosing samples matrix matched (1:1, 30 μL study sample+30 μL blank buffer) with the opposite buffer. Samples were processed by adding acetonitrile containing internal standard (60 μL study sample+200 μL acetonitrile containing internal standard—Tolbutamide, 500 ng/mL). Samples were vortexed and centrifuged at 4000 rpm for 10 minutes. The obtained supernatant (100 μL) was diluted with 100 μL of water and transferred to fresh 96 well plates. The concentration of compounds in the samples was analyzed by liquid chromatography tandem mass spectrometry (LC-MS/MS) method using discovery grade bio-analytical method, as applicable.
The mean apparent permeability (Papp, ×10^−6 cm/sec) of the test compounds, atenolol, propranolol and digoxin were calculated as follows:
[formula] where dq/dt=rate of transport (rate of transport of compound in the receiver compartment), C0=initial concentration in the donor compartment, A=surface area of the effective filter membrane.

Compound	IC50 (human LBAT)	Papp A→B at 120 min, 10 µM [1]
CCCCC1(CC)CN(c2ccccc2)c2cc(N(C)C)c(OCCC(=O)O)cc2S(=O)(=O)N1 (racemic) [Example 11, 3-((3-Butyl-7-(dimethylamino)-3-ethyl-1,1-dioxido-5-phenyl-2,3,4,5-tetrahydro-1,2,5-benzothiadiazepin-8-yl)oxy)propanoic acid]	1.17 µM	13.1 ×10⁻⁶ cm/s
CCCCC1(CC)CN(c2ccccc2)c2cc(SC)c(OCCC(=O)O)cc2S(=O)(=O)N1 (single isomer, unassigned) [Example 4, 3-((3-butyl-3-ethyl-7-(methylthio)-1,1-dioxido-5-phenyl-2,3,4,5-tetrahydro-1,2,5-benzothiadiazepin-8-yl)oxy)propanoic acid]	3.65 µM	7.6 ×10⁻⁶ cm/s
CCCCC1(CC)CN(c2ccccc2)c2cc(N(C)C)c(OCCC(=O)O)cc2S(=O)(=O)N1 (single isomer, unassigned) [Example 12, 3-((3-butyl-7-(dimethylamino)-3-ethyl-1,1-dioxido-5-phenyl-2,3,4,5-tetrahydro-1,2,5-benzothiadiazepin-8-yl)oxy)propanoic acid]	2.22 µM	14.2 ×10⁻⁶ cm/s
CCCCC1(CCCC)CN(c2ccccc2)c2cc(Cl)c(OCCC(=O)O)cc2S(=O)(=O)N1 [Example 9, 3-((3,3-dibutyl-7-chloro-1,1-dioxido-5-phenyl-2,3,4,5-tetrahydro-1,2,5-benzothiadiazepin-8-yl)oxy)propanoic acid]	1.62 µM	10 ×10⁻⁶ cm/s
CCCCC1(CCCC)CN(c2ccc(O)cc2)c2cc(SC)c(OCCC(=O)O)cc2S(=O)(=O)N1 [Example 10, 3-((3,3-dibutyl-5-(4-hydroxyphenyl)-7-(methylthio)-1,1-dioxido-2,3,4,5-tetrahydro-1,2,5-benzothiadiazepin-8-yl)oxy)propanoic acid]	7.21 µM	2.1 ×10⁻⁶ cm/s

The next lines start with the values.

IC50 (human LBAT)	Papp A→B at 120 min, 10 µM [1]	Compound
1.88 µM	1 ×10⁻⁶ cm/s	CCCCC1(CCCC)CN(c2ccccc2)c2cc(SC)c(OCC(O)C(=O)O)cc2S(=O)(=O)N1 (racemic) [Example 5, 3-((3,3-dibutyl-7-(methylthio)-1,1-dioxido-5-phenyl-2,3,4,5-tetrahydro-1,2,5-benzothiadiazepin-8-yl)oxy)-2-hydroxypropanoic acid]
2.22 µM	0.4 ×10⁻⁶ cm/s	CCCCC1(CCCC)CN(c2ccccc2)c2cc(SC)c(OCC(O)C(=O)O)cc2S(=O)(=O)N1 (single isomer, unassigned) [Example 7, 3-((3,3-dibutyl-7-(methylthio)-1,1-dioxido-5-phenyl-2,3,4,5-tetrahydro-1,2,5-benzothiadiazepin-8-yl)oxy)-2-hydroxypropanoic acid]
2.91 µM	9.2 ×10⁻⁶ cm/s	CCCCC1(CCCC)CN(c2ccccc2)c2cc(SC)c(OCCC(=O)O)cc2S(=O)(=O)N1 [Example 1, 3-((3,3-Dibutyl-7-(methylthio)-1,1-dioxido-5-phenyl-2,3,4,5-tetrahydro-1,2,5-benzothiadiazepin-8-yl)oxy)propanoic acid]
2.63 µM	9.5 ×10⁻⁶ cm/s	CCCCC1(CCCC)CN(c2ccccc2)c2cc(SC)c(OC(C)CC(=O)O)cc2S(=O)(=O)N1 (stereo not drawn) [Example 8, 3-((3,3-Dibutyl-7-(methylthio)-1,1-dioxido-5-phenyl-2,3,4,5-tetrahydro-1,2,5-benzothiadiazepin-8-yl)oxy)butanoic acid]
